According to patent US9888679B2, “Protection of progenitor cells and regulation of their differentiation” (Proteobioactives Pty Ltd, priority 2007, dated 2018):

Assays:
Type II collagen = experiment: Gene expression in 6-day pellet culture (RT-PCR); type: cell-based, murine; conditions: ATDC5 cells; 6 days in pellet culture; FIG. 13
Protocol: FIG. 13. Gene Expression by ATDC5 cells of Type II collagen and Sox-9 in 6-day pellet culture incubated with various concentrations of PPS in Maintenance Medium (MM).
Total RNA was isolated from Progenitor cells according to the manufacturer's instructions for the Aurum total RNA mini kit (Bio-Rad, USA). The RNA was reverse transcribed with RevertAid™ H Minus First Stand cDNA Synthesis Kit (Fermentas, USA). PCR products were transferred to an agarose gel, and visualized by ethidium bromide staining, and integrated densities calculated using Scion image analysis software, normalized to the house-keeping gene Glyceraldehydes-3-phosphate dehydrogenase (GAPDH) to permit semi-quantitative comparisons in mRNA levels. (L. Marchuk, P. Sciore, C. Reno, C. B. Frank, D. A. Hart. Postmortem stability of total RNA isolated from rabbit ligament, tendon and cartilage, Biochim Biophys Acta. 1379 (1998) 171-177. R. Boykiw, P. Sciore, C. Reno, L. Marchuk, C. B. Frank, D. A. Hart. Altered levels of extracellular matrix molecule mRNA in healing rabbit ligaments, Matrix Biol. 17 (1998) 371-378.)

human progenitor cells = experiment: DNA synthesis (3H-Thymidine incorporation) in micromass cultures; type: cell-based; conditions: FIG. 5
Protocol: FIG. 5. A bar graph of the concentration dependent effects of Pentosan Polysulfate (PPS) on DNA synthesis by human progenitor cells, as determined by the incorporation of ^3H-Thymidine into macromolecular DNA, after 4 day micromass cultures. *=p<0.05; **=p<0.005 relative to controls.
Ten μl of progenitor cells (7×10^6 cells/ml) were seeded into each well of a 24-well culture plate. After incubation at 37° C. in moist 5% CO2/95% air for 2-3 hours, 900 μl of DMEM-High medium (+10% FBS) and indicated concentrations PPS dissolved in DMEM-High medium were added slowly to the wells. The final PPS concentration were 0, 0.1, 0.5, 1.0, 2.5, 5.0, 10.0, 20.0 μg/ml, respectively. Every PPS concentration was established in triplicate. The cultures were allowed to proceed for 3 days. On day 4, to each well of the 24-well plate was added 640 μl of DMEM-High (+10% FBS), 80 μl of 10×PPS solution and 80 μl of 10 μCi/ml ^3H-Thymidine solution to produce a final ^3H-Thymidine concentration of […] and final PPS concentrations as indicated. The cultures were then incubated in 37° C., 5% CO2 for a further 22 hours, the medium was removed and 200 μl of 1 mg/ml Collagenase solution [Collagenase buffer: 66.7 mM NaCl, 6.7 mM KCl, 4.8 mM CaCl2.2H2O, 10 mM HEPES (pH7.4)] was added to each well. […] The radioactivity of ^3H incorporated into the DNA of proliferating cells was measured by scintillation counting.

pentosan polysulfate [PPS]
type II collagen expression (Type II collagen): up-regulated in a concentration dependent manner
cell division (3H-Thymidine incorporation into DNA) (human progenitor cells; 1-5 micrograms/mL): Marked stimulation of cell division
proliferation (3H-Thymidine incorporation into DNA) (human progenitor cells; all PPS concentrations (0.1-20 μg/ml)): increased proliferation
